Data on 12 compounds can be found in publication PMC11593225, “Polyphenolic Compounds Activate SERCA1a and Attenuate Methylglyoxal- and Palmitate-Induced Impairment in Pancreatic INS-1E Beta Cells” (Cells, 2024).

pEC50, pIC50: −log10 of the molar value. “Also recorded” adds a separate entry of the source. Where two headings read alike, the source gives them in different places.

The subject of one data set is SERCA2 isoform. Set-up: method as in Kang et al. [43] and Nguyen et al. [44]. The conditions noted are these: ref Kang et al. [43] and Nguyen et al. [44]; cited from earlier work.
Another data set has as its target T1, SERCA1a (Oryctolagus cuniculus, UniProt P04191).
T1 construct: Sarcoplasmic reticulum (SR) vesicles were isolated from the fast-twitch skeletal muscle; from tissue; host or cells: rabbit fast-twitch skeletal muscle, sarcoplasmic reticulum vesicles
Put plainly: SERCA1a ATPase activity, NADH-coupled enzyme assay in sarcoplasmic reticulum vesicles.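 On all read-outs here: rabbit fast-twitch skeletal muscle SR vesicles with Ca2+ ionophore A23187, ATP hydrolysis rate followed as NADH absorbance loss at 340 nm, 37 °C, started by 10 µM CaCl2.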 Type of data set: biochemical, rabbit. The note with it: for Effect on SERCA1a activity: 2 min; for Effect on SERCA1a activity in the presence of PAL: 0.65 mM PAL; for Effect on SERCA1a activity in the presence of MGX: 3 mM MGX; for Concentration from which the SERCA1a activating effect starts: concentration-dependent activation; for pIC50: read-out: IC50, reduction in SERCA1a activity; for PAL SERCA1a Activity: in the presence of PAL.

The subject of data set [1] is INS-1E beta cells. Put plainly: Insulin release from INS-1E beta cells (RIA). Type of data set: cell-based. The note with it: for Insulin release from non-stimulated cells / Insulin release from Glu-stimulated cells: 50 µM, except CUR and THCU 10 µM, 24 h; for Insulin release from non-stimulated cells / Insulin Secretion Non-Stimulated: 3 mM glucose; for Insulin release from Glu-stimulated cells / Insulin Secretion Stimulated: 16.7 mM glucose. The procedure:
(§1) The INS-1E insulinoma pancreatic beta cell line (kindly provided by Prof. Claes Wollheim, University of Geneva) was cultured in RPMI 1640 (11 mM glucose, Sigma, St. Louis, MO, USA). The RPMI 1640 was supplemented with 100 U/mL penicillin, 100 μg/mL streptomycin, 2 mM L-glutamine, 1 mM Na pyruvate, 55 μM 2-mercaptoethanol, 10 mM HEPES, 1% nonessential amino acids, and 10% fetal bovine serum (pH 7.0–7.4). Cells were cultivated in a humidified incubator containing 5% CO2 at 37 °C. All experiments were conducted using cells from passages 40 to 70. The cells were pre-treated with various concentrations of individual compounds (5–200 μM) for 24 h with or without MGX (2.5 mM) and PAL (0.4 mM). Subsequent measurements were then performed using a cytotoxicity MTT assay and an insulin release assay.
Insulin release in response to glucose was measured in INS-1E beta cells ([…]). Briefly, after 24 h preincubation with individual compounds, beta cells were washed with a glucose-free KRBH buffer. Subsequently, cells were incubated at 37 °C for 30 min in a glucose-free KRBH buffer, followed by another 30 min incubation at 37 °C in a KRBH buffer containing either 3 mM glucose (non-stimulating concentration) or 16.7 mM glucose (insulin-stimulating concentration). The supernatants were then collected and analyzed using an RIA kit (Mercodia, Uppsala, Sweden) for insulin release, with rat insulin as the standard.

The subject of data set [2] is INS-1E beta cells. Put plainly: MTT viability assay in INS-1E beta cells. The note with it: for pIC50: MTT, read-out: IC50, INS-1E cell viability; for PAL INS-1E Viability: in the presence of PAL; for Effect on INS-1E viability in the presence of MGX: 2.5 mM MGX; for Concentrations protecting against MGX-induced beta cell viability decrease: MGX 2.5 mM. The format is cell-based. The procedure:
as §1, with “The cells were pre-treated with various concentrations of individual compounds (5–200 μM) for 24 h with or without MGX (2.5 mM) and PAL (0.4 mM).” left out
The MTT (Sigma, St. Louis, MO, USA) reduction assay was used as an indicator of cell damage and was conducted following a standard protocol. INS-1E cells (5 × 10^4 cells per well) were seeded into 96-microwell plates. The cells were preincubated for different periods with or without various concentrations of individual compounds for 24 h (5% CO2 at 37 °C). MTT was introduced to achieve a final concentration of 0.5 mg/mL in an RPMI 1640 medium. Following a 4 h incubation, the MTT medium was removed. The addition of DMSO (100 µL) was added and left to stand for 15 min to solubilize the formazan formed. The absorbance was recorded at 570 nm using a microplate reader (Infinite M200, Tecan, Switzerland).

The mark [3] stands for this setting: SR vesicles, no stressor, read-out: EC50, SERCA1a activation.

T1 sequence (P04191 1-994 isoform P04191-2): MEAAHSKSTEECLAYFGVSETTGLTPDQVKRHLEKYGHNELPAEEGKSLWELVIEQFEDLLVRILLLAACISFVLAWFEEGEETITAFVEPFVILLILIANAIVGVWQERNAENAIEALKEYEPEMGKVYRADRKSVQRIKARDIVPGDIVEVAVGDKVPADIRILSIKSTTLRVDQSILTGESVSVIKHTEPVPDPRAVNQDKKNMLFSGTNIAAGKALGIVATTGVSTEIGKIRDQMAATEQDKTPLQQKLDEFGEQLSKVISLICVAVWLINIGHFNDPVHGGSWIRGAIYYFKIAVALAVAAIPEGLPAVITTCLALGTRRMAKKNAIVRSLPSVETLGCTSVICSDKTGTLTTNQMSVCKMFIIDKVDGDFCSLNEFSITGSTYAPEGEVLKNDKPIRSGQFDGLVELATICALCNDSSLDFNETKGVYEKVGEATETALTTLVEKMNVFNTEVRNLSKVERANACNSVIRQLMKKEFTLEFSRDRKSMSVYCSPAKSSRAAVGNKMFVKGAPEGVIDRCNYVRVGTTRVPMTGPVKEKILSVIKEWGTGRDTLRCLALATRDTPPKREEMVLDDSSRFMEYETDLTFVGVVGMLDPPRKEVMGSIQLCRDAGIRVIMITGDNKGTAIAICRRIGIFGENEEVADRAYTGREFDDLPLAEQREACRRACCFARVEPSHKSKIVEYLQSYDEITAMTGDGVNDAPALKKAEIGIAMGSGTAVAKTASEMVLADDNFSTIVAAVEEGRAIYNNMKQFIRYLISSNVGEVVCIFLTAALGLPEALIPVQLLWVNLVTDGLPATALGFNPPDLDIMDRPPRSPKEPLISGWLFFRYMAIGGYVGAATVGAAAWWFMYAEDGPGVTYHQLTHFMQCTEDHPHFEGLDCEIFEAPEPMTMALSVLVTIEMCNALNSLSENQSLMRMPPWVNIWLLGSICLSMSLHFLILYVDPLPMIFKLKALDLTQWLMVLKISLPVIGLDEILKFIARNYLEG

For `Cc1ccc2cccc(NC(=O)c3ccc(OC(C)C)cc3)c2n1` [CDN1163], the “Concentrations required for efficient SERCA activation” value with SERCA2 isoform was 1 to 10 µM.
For the compound `Oc1cc(O)c2cc(O)c(-c3ccc(O)c(O)c3)[o+]c2c1` [CYA, Cyanidin chloride], the “Effect on SERCA1a activity” value at SERCA1a (5–200 μM) is recorded as “increase SERCA1a activity”.
Consider `O=c1oc2c(O)c(O)cc3c(=O)oc4c(O)c(O)cc1c4c23` [EA, Ellagic acid], for which the “Increase in SERCA1a activity” value at SERCA1a (50 μM) is on record as “approximately 150%”. The “Effect on SERCA1a activity in the presence of PAL” value on SERCA1a (50 µM) was “alleviated PAL-induced injury almost to control values”. For the same compound, on SERCA1a (5–200 μM), the “Effect on SERCA1a activity in the presence of PAL” value was “most profound protective effect”, the “Effect on SERCA1a activity in the presence of MGX” value is “potent concentration-dependent protective effect” and the “Effect on SERCA1a activity” value is “increase SERCA1a activity”. Further, at SERCA1a (setting [3]), the pEC50 is 4.48. The “Concentration from which the SERCA1a activating effect starts” value at SERCA1a is listed as at least 30 µM. Also, in the data set on INS-1E beta cells [1], the “Insulin release from non-stimulated cells” value was “significant increase in insulin release” and the “Insulin release from Glu-stimulated cells” value is given as “significant increase in insulin release”. Also, the “Effect on INS-1E viability in the presence of PAL” value in the data set with INS-1E beta cells [2] (0.4 mM PAL, 5–200 μM) is on record as “protection”.
As for `CCCCC[C@H](O)CC(=O)CCc1ccc(O)c(OC)c1` [GIN, [6]-Gingerol], at SERCA1a (5–200 μM), the “Effect on SERCA1a activity in the presence of PAL” value is reported as “protective effect”, the “Effect on SERCA1a activity in the presence of MGX” value is “potent concentration-dependent protective effect” and the “Effect on SERCA1a activity” value is “increase SERCA1a activity”. Further, the “Effect on SERCA1a activity in the presence of PAL” value on SERCA1a (50 and 100 μM) is reported as “protected against the decrease in SERCA1 activity”. At SERCA1a (100–200 μM), the “Effect on SERCA1a activity in the presence of MGX” value is on record as “protected against the decrease in SERCA1 activity”. In addition, on SERCA1a (setting [3]), the negative-log EC50 (pEC50) was 4.43. For the same compound, on SERCA1a, the “Concentration from which the SERCA1a activating effect starts” value was at least 30 µM. In the data set with INS-1E beta cells [1], the “Insulin release from non-stimulated cells” value was “did not induce an increase”, the “Insulin release from Glu-stimulated cells” value was “slight increase” and the “Insulin Secretion Non-Stimulated” value is “-”.
Regarding `CC(=O)C=O` [MGX, methylglyoxal], the figures for the pIC50 at SERCA1a (SR vesicles) and in the data set on INS-1E beta cells [2] were 2.53 and 2.60, respectively.
Regarding `O=c1c(O)c(-c2cc(O)c(O)c(O)c2)oc2cc(O)cc(O)c12` [MYR, Myricetin], at SERCA1a (control conditions), the “SERCA1a Activity” value is given as “-”. At SERCA1a, the “PAL SERCA1a Activity” value is listed as “-”. Moreover, the “Effect on INS-1E viability in the presence of PAL” value in the data set with INS-1E beta cells [2] (0.4 mM PAL, 5–200 μM) is listed as “highest degree of protection”. Also, the “INS-1E viability restored, % of the control cell value” with INS-1E beta cells [2] (0.4 mM PAL, 10 and 50 µM) is listed as “approximately 80%”.
As to `Oc1cc(O)cc(/C=C/c2ccc(O)cc2O)c1` [ORES, Oxyresveratrol], the “Effect on SERCA1a activity in the presence of MGX” value on SERCA1a (5–200 μM) is given as “further decreased SERCA1a activity”. Further, on SERCA1a, the “PAL SERCA1a Activity” value is listed as “-”. Moreover, the “Insulin Secretion Non-Stimulated” value with INS-1E beta cells [1] was “-”. Besides, in the data set on INS-1E beta cells [2], the “PAL INS-1E Viability” value was “-”.
For `CCCCCCCCCCCCCCCC(=O)O` [PAL, palmitate], the negative-log IC50 (pIC50) at SERCA1a (SR vesicles) was 3.19; in the data set with INS-1E beta cells [2] (INS-1E), 3.39.
Turning to `Oc1ccc(/C=C/c2cc(O)cc(O)c2)cc1` [RES, Resveratrol], the “Effect on SERCA1a activity in the presence of MGX” value on SERCA1a (5–200 μM) was “potent concentration-dependent protective effect”. For the same compound, the pEC50 at SERCA1a (in the presence of MGX (3 mM), read-out: EC50, protection of SERCA1 activity against MGX) was 3.95. Besides, in the data set with INS-1E beta cells [1], the “Insulin Secretion Non-Stimulated” value is reported as “-” and the “Insulin Secretion Stimulated” value is reported as “-”. In the data set with INS-1E beta cells [2] (0.4 mM PAL, 5–200 μM), the “Effect on INS-1E viability in the presence of PAL” value is on record as “did not prevent the decrease”. In addition, in the data set on INS-1E beta cells [2] (5–200 μM, 24 h), the “Effect on INS-1E viability in the presence of MGX” value is reported as “no effect; also recorded: did not prevent the decrease”. Besides, the “MGX INS-1E Viability” value in the data set on INS-1E beta cells [2] (in the presence of MGX) is “-”. In addition, the “PAL INS-1E Viability” value in the data set with INS-1E beta cells [2] is on record as “-”.
`CCCCC/C=C/C(=O)CCc1ccc(O)c(OC)c1` [SHO, [6]-Shogaol]: at SERCA1a (5–200 μM), the “Effect on SERCA1a activity in the presence of PAL” value is recorded as “additional decrease in SERCA1a activity; also recorded: no preventive effect”, the “Effect on SERCA1a activity in the presence of MGX” value is on record as “further decreased SERCA1a activity; also recorded: no preventive effect” and the “Effect on SERCA1a activity” value is “does not”. Moreover, in the data set on INS-1E beta cells [1], the “Insulin Secretion Non-Stimulated” value is reported as “-” and the “Insulin Secretion Stimulated” value is given as “-”.
As for `COc1cc(CCC(=O)CC(=O)CCc2ccc(O)c(OC)c2)ccc1O` [THCU, Tetrahydrocurcumin], the “MGX SERCA1a Activity” value on SERCA1a (in the presence of MGX) is “-”. On SERCA1a, the “PAL SERCA1a Activity” value is “-”. For the same compound, in the data set with INS-1E beta cells [1], the “Insulin release from non-stimulated cells” value is given as “significant increase in insulin release” and the “Insulin release from Glu-stimulated cells” value is “significant increase in insulin release”. For the same compound, the “Effect on INS-1E cell viability” value in the data set with INS-1E beta cells [2] (20 µM, 24 h) is “stimulating effect on cell viability”. Moreover, the “Effect on INS-1E viability in the presence of MGX” value in the data set with INS-1E beta cells [2] (20 µM) was “protective effect”. Besides, in the data set on INS-1E beta cells [2], the “Concentrations protecting against MGX-induced beta cell viability decrease” value was under 20 µM.
As for Curcumin, the “Effect on SERCA1a activity in the presence of PAL” value at SERCA1a (5–200 μM) is reported as “additional decrease in SERCA1a activity”. The “Effect on SERCA1a activity in the presence of MGX” value at SERCA1a (10 µM) was “prevented MGX-mediated decline”. Also, the “Effect on SERCA1a activity in the presence of MGX” value on SERCA1a (20–50 µM) is “further decreased SERCA1a activity”. Besides, in the data set on INS-1E beta cells [1], the “Insulin release from non-stimulated cells” value is listed as “significant increase in insulin release” and the “Insulin release from Glu-stimulated cells” value is “significant increase in insulin release”. Moreover, the “Effect on INS-1E viability in the presence of PAL” value in the data set on INS-1E beta cells [2] (0.4 mM PAL, 5–200 μM) is recorded as “protection”. The “Effect on INS-1E viability in the presence of MGX” value in the data set with INS-1E beta cells [2] (5 and 10 µM) was “protective effect”. For the same compound, in the data set with INS-1E beta cells [2], the “Concentrations protecting against MGX-induced beta cell viability decrease” value was under 20 µM.
